These results are taken from patent EP1285659A1, “Use of clarithromycin compositions in the manufacture of a medicament for the treatment of arthritis deformans” (Fondazione Salvatore Maugeri, priority 2001, dated 2003).

The format of the series is in vivo, patients. An excerpt: The clinical experimentation has been carried out on 18 patients of which 14 females and 4 males, having an average age equal to 62 years selected by the inclusion and exclusion criteria as hereinafter reported. The patients submitted to the clinical experimentation suffered from arthritis deformans diagnosed according to the ARA International Criteria since at least two years, belonging to the 2th and 3rd functional classes according to Steinbrocker. The disease was clinically active notwithstanding the use of drugs known as Disease-Modifying AntiRheumatic Drugs ([…]) able to modify the course of the illness such as for example methotrexate azathioprine, chloroquine, hydroxychloroquine and ciclosporin and notwithstanding the use of steroid and not steroid anti-inflammatory drugs. The patients suffering from arthritis deformans of 4th functional class according to Steinbrocker have been excluded from the experimentation that is the patients invalid with permanent injuries, the patients with associated serious systemic diseases, relevant psychiatric and neuropathic diseases, the drug addicts, the patients suffering from hypersensitivity to the macrolides and the patients under treatment with carbamazepine, ciclosporin and antihistamines. The clarithromycin administration started after the suspension of the Disease-Modifying AntiRheumatic Drugs since one month. In six patients who were assuming a steroid anti-inflammatory drug since at least two weeks, the administration of the same steroid drug with a 6 mg dose of prednisonic equivalent has been associated to the administration of clarithromycin. The administration of clarithromycin was 500 mg twice a day for 8-14 days and subsequently a customized dosage from 500 to 2,000 mg per day in one or two administrations has been applied. The control of the patients has been periodically carried out on 0, 10, 30, 60, 90 and 180 days by medical examination and determination of the haematochemical and functional indexes. In particular the following indexes have been controlled: • HAQ (Health Assessment Questionnaire, 1986), internationally validated as reference functional index in the rheumatic disease; • VAS (Visuanalogic Ache Scale according to Scott Huskisson); • ESR (Erythro Sedimentation Rate).

Where [1] appears, read: Day 180, clarithromycin 500 mg twice a day for 8-14 days, then 500 to 2,000 mg per day, p < 0.05 (Mann-Whitney U test).

Read-outs that look alike come from different tables or passages of the source.

As for `CC[C@H]1OC(=O)[C@H](C)[C@@H](O[C@H]2C[C@@](C)(OC)[C@@H](O)[C@H](C)O2)[C@H](C)[C@@H](O[C@@H]2O[C@H](C)C[C@H](N(C)C)[C@H]2O)[C@](C)(OC)C[C@@H](C)C(=O)[C@H](C)[C@@H](O)[C@]1(C)O` [clarithromycin], the ESR is on record as 44.8 ± 8.4 (Day 0 (baseline, before clarithromycin), 18 patients, Erythro Sedimentation Rate) and 27 ± 5.8 (c) under setting [1]. In addition, the HAQ by setting is: (Day 0 (baseline, before clarithromycin), 18 patients, Health Assessment Questionnaire) 20.2 ± 2.6; (Day 180, clarithromycin 500 mg twice a day for 8-14 days, then 500 to 2,000 mg per day, p < 0.0001 (Mann-Whitney U test)) 5.5 ± 0.51 (a). For the same compound, the VAS is 4.7 ± 0.51 (Day 0 (baseline, before clarithromycin), 18 patients, Visuanalogic Ache Scale according to Scott Huskisson) and 1.32 ± 0.44 (b) under setting [1]. The “side effect ascribable to the drug” value (human, in vivo) is recorded as “No significant side effect”. This compound returned a patients not responding (number of patients out of 18) of 4. Further, the “patients responding to the therapy” value (number of patients out of 18) is given as 14. Further, the “reduction of the symptomatology” value (starting from the second week of treatment) was “significant reduction of the symptomatology”.
